Measurements: ChEMBL document CHEMBL1201862, “PubChem BioAssay data set” (2004)
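Where inhibition never reached the appropriate level, the endpoint shown equals the highest concentration tested. Otherwise, values were interpolated linearly from a five-concentration, 48-hour dose response in 96-well plates. GI50: concentration for 50% inhibition of growth.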 Active and inactive are the calls of the source. No stated cut-off is given here; in the data, active = GI50 up to about 1.1 µM and inactive = higher.

Legend:
Experiment in all cases: inhibition of tumour cell growth, NCI panel, 48 h
786-0 = test system: 786-0
A498 = test system: A498
BT-549 = test system: BT-549
CCRF-CEM = test system: CCRF-CEM
COLO 205 = test system: COLO 205
EKVX = test system: EKVX
HCT-15 = test system: HCT-15
HOP-62 = test system: HOP-62
HOP-92 = test system: HOP-92
Hs-578T = test system: Hs-578T
IGROV-1 = test system: IGROV-1
NCI-H522 = test system: NCI-H522
PC-3 = test system: PC-3
RXF 393 = test system: RXF 393
SNB-19 = test system: SNB-19
SR = test system: SR
T47D = test system: T47D
U-251 = test system: U-251
UACC-257 = test system: UACC-257
UO-31 = test system: UO-31

SMILES | GI50 (786-0) | GI50 (A498) | GI50 (BT-549) | GI50 (CCRF-CEM) | GI50 (COLO 205) | GI50 (EKVX) | GI50 (HCT-15) [µM] | GI50 (HOP-62) | GI50 (HOP-92) | GI50 (Hs-578T) | GI50 (IGROV-1) | GI50 (NCI-H522) | GI50 (PC-3) | GI50 (RXF 393) | GI50 (SNB-19) | GI50 (SR) | GI50 (T47D) | GI50 (U-251) | GI50 (UACC-257) | GI50 (UO-31)
COc1cc(C2c3cc4c(cc3OC(NNC(N)=S)C2C)OCO4)cc(OC)c1OC (stereo not given) | 0.398 µM (active) | 0.191 µM (active) | 0.804 µM (active) | 0.244 µM (active) | 0.277 µM (active) | 22.5 µM (inactive) | 0.451 | 0.344 µM (active) | 0.152 µM (active) | 0.406 µM (active) | 0.441 µM (active) | 0.303 µM (active) | 0.302 µM (active) | 0.279 µM (active) | 0.471 µM (active) | 0.0811 µM (active) | 26.1 µM (inactive) | 0.362 µM (active) | 1.93 µM (inactive) | 0.931 µM (active)
CN1CCOC1(C)c1ccccc1 (stereo not given) | > 100 µM (inactive) | > 100 µM (inactive) | > 100 µM (inactive) | > 100 µM (inactive) | > 100 µM (inactive) | > 100 µM (inactive) | > 100 | > 100 µM (inactive) | > 100 µM (inactive) | > 100 µM (inactive) | > 100 µM (inactive) | > 100 µM (inactive) | > 100 µM (inactive) | > 100 µM (inactive) | > 100 µM (inactive) | > 100 µM (inactive) | > 100 µM (inactive) | > 100 µM (inactive) | > 100 µM (inactive) | > 100 µM (inactive)
Cn1c2ccccc2n2c3ccccc3c3nnc(N)c-3c12 | 0.847 µM (active) | > 100 µM (inactive) | 2.25 µM (inactive) | 37.3 µM (inactive) | 32.4 µM (inactive) | > 100 µM (inactive) | > 100 | 9.2 µM (inactive) | 42.4 µM (inactive) | 1.69 µM (inactive) | > 100 µM (inactive) | 8.53 µM (inactive) | 68.2 µM (inactive) | 22.7 µM (inactive) | 1.45 µM (inactive) | 26.7 µM (inactive) | 1.64 µM (inactive) | 0.673 µM (active) | 51.1 µM (inactive) | > 100 µM (inactive)
CC(NNC(=O)c1ccncc1)c1ccc(Cl)cc1Cl (stereo not given) | > 100 µM (inactive) | > 100 µM (inactive) | > 100 µM (inactive) | 49.4 µM (inactive) | > 100 µM (inactive) | > 100 µM (inactive) | 65.6 | 88.5 µM (inactive) | 70.6 µM (inactive) | > 100 µM (inactive) | > 100 µM (inactive) | > 100 µM (inactive) | 59.8 µM (inactive) | > 100 µM (inactive) | > 100 µM (inactive) | 55.3 µM (inactive) | 51.9 µM (inactive) | > 100 µM (inactive) | > 100 µM (inactive) | 38.9 µM (inactive)
O=C1Nc2ccccc2/C1=C1/Nc2ccccc2/C1=N/OCCO | 13 µM (inactive) | 0.213 µM (active) | 50.9 µM (inactive) | > 100 µM (inactive) | 3.99 µM (inactive) | 0.662 µM (active) | 0.433 | > 100 µM (inactive) | > 100 µM (inactive) | 6.14 µM (inactive) | 0.274 µM (active) | > 100 µM (inactive) | 15.1 µM (inactive) | 5.85 µM (inactive) | > 100 µM (inactive) | 0.546 µM (active) | 5.62 µM (inactive) | > 100 µM (inactive) | > 100 µM (inactive) | 0.363 µM (active)
CN(C)c1nc2n(CCO)c(-c3ccccc3)c(-c3ccccc3)nc-2c(=O)n1 | > 100 µM (inactive) | > 100 µM (inactive) | > 100 µM (inactive) | > 100 µM (inactive) | > 100 µM (inactive) | > 100 µM (inactive) | > 100 | > 100 µM (inactive) | > 100 µM (inactive) | > 100 µM (inactive) | > 100 µM (inactive) | > 100 µM (inactive) | > 100 µM (inactive) | > 100 µM (inactive) | > 100 µM (inactive) | > 100 µM (inactive) | > 100 µM (inactive) | > 100 µM (inactive) | > 100 µM (inactive) | > 100 µM (inactive)
